From the supplement of paper PMC10307832 come the findings set out here.

Common to all, as to test: relative viability (nuclei count vs DMSO), 5 days (fraction); higher = more cells survive
Compound in assay [1]: N#CC1(c2ccc(NC(=O)c3cccnc3NCc3ccncc3)cc2)CCCC1 [Apatinib] + O=C(c1cc(Cc2n[nH]c(=O)c3ccccc23)ccc1F)N1CCN(C(=O)C2CC2)CC1 [Olaparib] (partner 8 µM)
The method in brief:
(§1)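 Lung cancer cell lines, seeded in 1536-well plates, were treated the following day by pin tool with a single drug or with five library-drug doses (not always all listed) in √10 steps on top of a fixed anchor-drug dose. Cells were fixed and nuclei stained in one step after 5 days, and nuclei were counted. Relative viability is the nuclei count for treated wells divided by that for vehicle wells, reported as medians of duplicate plates.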

Compound in assay [2]: CN(C)C(=N)NC(=N)N [Metformin] + Cc1nc(Nc2ncc(C(=O)Nc3c(C)cccc3Cl)s2)cc(N2CCN(CCO)CC2)n1 [Dasatinib] (partner 0.075 µM)
Put shortly:
as §1

Compound in assay [3]: N#CC1(c2ccc(NC(=O)c3cccnc3NCc3ccncc3)cc2)CCCC1 [Apatinib] + Nc1ncn([C@H]2C[C@H](O)[C@@H](CO)O2)c(=O)n1 [Decitabine] (partner 2 µM)
The method in brief:
as §1

Compound in assay [4]: CN(C)C(=N)NC(=N)N [Metformin] + CCNC(=O)c1noc(-c2cc(C(C)C)c(O)cc2O)c1-c1ccc(CN2CCOCC2)cc1 [Luminespib] (partner 0.01 µM)
Put shortly:
as §1

Consider NCI-H460, for which the relative viability came out at 0.407 in assay [1] (first compound 0.08 µM); 0.444 in assay [1] (first compound 0.253 µM); 0.344 in assay [1] (first compound 0.8 µM); 0.323 in assay [1] (first compound 2.53 µM); 0.237 in assay [1] (first compound 8 µM); 0.402 in assay [2] (first compound 10 µM). Also, the relative viability is 0.546 in assay [2] (first compound 31.62 µM); 0.353 in assay [2] (first compound 100 µM); 0.43 in assay [2] (first compound 316.23 µM); 0.457 in assay [2] (first compound 1000 µM); 0.497 in assay [3] (first compound 0.08 µM); 0.457 in assay [3] (first compound 0.253 µM). Besides, the relative viability in assay [3] (first compound 0.8 µM) was 0.43; in assay [3] (first compound 2.53 µM), 0.447; in assay [3] (first compound 8 µM), 0.477; in assay [4] (first compound 10 µM), 0.048; in assay [4] (first compound 31.62 µM), 0.0359; in assay [4] (first compound 100 µM), 0.0322. Also, the relative viability in assay [4] (first compound 316.23 µM) was 0.0306; in assay [4] (first compound 1000 µM), 0.0333.
